Results published in patent publication US11478478B2, “2,3-disubstituted 1-acyl-4-amino-1,2,3,4-tetrahydroquinoline derivatives and their use as bromodomain inhibitors” (GLAXOSMITHKLINE INTELLECTUAL PROPERTY (NO.2) LIMITED, priority 2013, dated 2022).

The compounds below were run against T1, BRD4 BD2 (Homo sapiens, UniProt O60885, Y97A) (assay: TR-FRET binding assay, BRD4 BD2 (BD1-mutated protein)). Conditions: read-out: pIC50 in the BRD4 BD2 assay (converted).
T1 construct: BRD4 (1-477) (Y97A) and (Y390A); made in house; host or cells: E. coli (pET15b vector)
Method in brief: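 Displacement of Alexa Fluor647-labelled bromodomain ligand (at Kd) from 10 nM His-tagged BRD4 (1-477, Y97A) read by Eu-anti-His TR-FRET (665/615 ratio) in pH 7.4 HEPES buffer, 0.5% DMSO. Compound preincubated 30 min at rt, detection ≥30 min. pIC50 derived from four-parameter fit after normalisation to controls.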

IC50 | Compound
1000 to 100000 nM | CC(=O)N1c2ccncc2C(Nc2nccc(C)n2)C(C)C1C1CC1 (racemic) [Example 598b, rac-1-((2,3,4 unknown)-2-cyclopropyl-3-methyl-4-((4-methylpyrimidin-2-yl)amino)-3,4-dihydro-1,6-naphthyridin-1(2H)-yl)ethanone]
1000 to 100000 nM | CC(=O)N1c2ccc(N3CCOCC3)cc2[C@H](Nc2ccccc2)[C@@H](C)[C@@H]1C (single isomer, unassigned) [Example 71a]
100 nM | CC(=O)N1c2ccc(N3CCOCC3)cc2[C@@H](Nc2ccccc2)[C@H](C)[C@H]1C (single isomer, unassigned) [Example 71b]
1000 to 100000 nM | CC(=O)N1c2ccc(N3CCOCC3)cc2[C@@H](Nc2ccccc2)[C@H](C)[C@H]1C1CC1 (single isomer, unassigned) [Example 91b]
1000 to 100000 nM | CC(=O)N1c2cccnc2[C@H](Nc2ccccc2)[C@@H](C)[C@@H]1C1CC1 (single isomer, unassigned) [Example 102b]
1000 to 100000 nM | CC(=O)N1c2cccnc2[C@@H](Nc2cccc(C)n2)[C@H](C)[C@H]1C1CC1 (single isomer, unassigned) [Example 114b]
100 nM | COCCn1cc(-c2ccc3c(c2)[C@H](Nc2cccc(C)n2)[C@@H](C)[C@H](C2CC2)N3C(C)=O)cn1 (single isomer, unassigned) [Example 136a]
100 nM | COCCn1cc(-c2ccc3c(c2)[C@H](Nc2cnc(C)cn2)[C@@H](C)[C@H](C2CC2)N3C(C)=O)cn1 (single isomer, unassigned) [Example 138a]
1000 to 100000 nM | COCCn1cc(-c2ccc3c(c2)[C@@H](Nc2cnc(C)cn2)[C@H](C)[C@@H](C2CC2)N3C(C)=O)cn1 (single isomer, unassigned) [Example 138b]
100 nM | CC[C@H]1[C@H](C)[C@@H](Nc2cccc(C)n2)c2cc(F)ccc2N1C(C)=O (single isomer, unassigned) [Example 146a]
1000 to 100000 nM | CC[C@@H]1[C@@H](C)[C@H](Nc2cccc(C)n2)c2cc(F)ccc2N1C(C)=O (single isomer, unassigned) [Example 146b]
1000 to 100000 nM | CC[C@H]1[C@H](C)[C@@H](Nc2ccc(C#N)cc2)c2cc(F)ccc2N1C(C)=O (single isomer, unassigned) [Example 147a]
100 nM | CC[C@@H]1[C@@H](C)[C@H](Nc2ccc(C#N)cc2)c2cc(F)ccc2N1C(C)=O (single isomer, unassigned) [Example 147b]
100 nM | CC(=O)N1c2ccc(C3=CCNCC3)cc2[C@H](Nc2cccc(C)n2)[C@@H](C)[C@@H]1C1CC1 (single isomer, unassigned) [Example 189a]
1000 to 100000 nM | CC(=O)N1c2ccc(C3=CCNCC3)cc2[C@@H](Nc2cccc(C)n2)[C@H](C)[C@H]1C1CC1 (single isomer, unassigned) [Example 189b]
100 nM | CNC(=O)c1ccc2c(c1)[C@H](Nc1cccc(C)n1)[C@@H](C)[C@H](C1CC1)N2C(C)=O (single isomer, unassigned) [Example 239a]
1000 to 100000 nM | CNC(=O)c1ccc2c(c1)[C@@H](Nc1cccc(C)n1)[C@H](C)[C@@H](C1CC1)N2C(C)=O (single isomer, unassigned) [Example 239b]
1000 to 100000 nM | CNC(=O)c1ccc(N[C@@H]2c3cc(C4=CCOCC4)ccc3N(C(C)=O)[C@H](C3CC3)[C@H]2C)cc1 (single isomer, unassigned) [Example 551a]
100 nM | CC(=O)N1c2ccc(N3CCOCC3)cc2[C@H](Nc2ccccc2)[C@@H](C)[C@@H]1C1CC1 [Example 91a, 1-((2S,3R,4R)-2-cyclopropyyl-3-methyl-6-morpholino-4-(phenylamino)-3,4-dihydroquinolin-1(2H)-yl)ethanone]

Second part, the compound before the results:

Compound | IC50
CC(=O)OC[C@@H]1[C@@H](Nc2ccccc2)c2ccccc2N(C(C)=O)[C@H]1C1CC1 (racemic) [Example 591, rac-((2S,3R,4R)-1-acetyl-2-cyclopropyl-4-(phenylamino)-1,2,3,4-tetrahydroquinolin-3-yl)methyl acetate] | 1000 to 100000 nM
CC(=O)N1c2ccccc2[C@H](Nc2ccccc2)[C@@H](CO)[C@@H]1C1CC1 (racemic) [Example 592, rac-1-((2S,3R,4R)-2-cyclopropyl-3-(hydroxymethyl)-4-(phenylamino)-3,4-dihydroquinolin-1(2H)-yl)ethanone] | 1000 to 100000 nM
COc1cc2c(cc1C(N)=O)[C@H](Nc1nccc(C)n1)[C@@H](C)[C@H](C1CC1)N2C(C)=O (racemic) [Example 593, rac-(2S,3R,4R)-1-acetyl-2-cyclopropyl-7-methoxy-3-methyl-4-((4-methylpyrimidin-2-yl)amino)-1,2,3,4-tetrahydroquinoline-6-carboxamide] | 1000 to 100000 nM
CC[C@H]1[C@H](C)[C@@H](Nc2cccc(C)n2)c2ccccc2N1C(C)=O (single isomer, unassigned) [Example 25a] | 100 nM
CC[C@@H]1[C@@H](C)[C@H](Nc2cccc(C)n2)c2ccccc2N1C(C)=O (single isomer, unassigned) [Example 25b] | 1000 to 100000 nM
CC(=O)N1c2ccccc2[C@H](Nc2ccccc2)[C@@H](C)[C@@H]1C1CC1 (single isomer, unassigned) [Example 27a] | 100 nM
CC(=O)N1c2ccccc2[C@@H](Nc2ccccc2)[C@H](C)[C@H]1C1CC1 (single isomer, unassigned) [Example 27b] | 1000 to 100000 nM
CC(=O)N1c2ccccc2[C@H](Nc2cccc(C)n2)[C@@H](C)[C@@H]1C1CC1 (single isomer, unassigned) [Example 29a] | 100 nM
CC(=O)N1c2ccccc2[C@@H](Nc2cccc(C)n2)[C@H](C)[C@H]1C1CC1 (single isomer, unassigned) [Example 29b] | 1000 to 100000 nM
CC(=O)N1c2ccc(C(N)=O)cc2[C@@H](Nc2nccc(C)n2)[C@H](C)[C@H]1C1CC1 (single isomer, unassigned) [Example 397] | 1000 to 100000 nM
CC(=O)N1c2ccc(N3CCOCC3)cc2[C@H](Nc2ccc(C#N)cc2)[C@@H](C)[C@@H]1C [Example 197, 4-(((2S,3R,4R)-1-acetyl-2,3-dimethyl-6-morpholino-1,2,3,4-tetrahydroquinolin-4-yl)amino)benzonitrile] | 100 nM
CC(=O)N1c2ccc(N3CCNCC3)cc2[C@H](Nc2ccc(C#N)cc2)[C@@H](C)[C@@H]1C [Example 214, 4-(((2S,3R,4R)-1-acetyl-2,3-dimethyl-6-(piperazin-1-yl)-1,2,3,4-tetrahydroquinolin-4-yl)amino)benzonitrile] | 100 nM
CCNC(=O)c1ccc2c(c1)[C@H](Nc1cccc(C)n1)[C@@H](C)[C@H](C1CC1)N2C(C)=O [Example 248, (2S,3R,4R)-1-acetyl-2-cyclopropyyl-N-ethyl-3-methyl-4-((6-methylpyridin-2-yl)amino)-1,2,3,4-tetrahydroquinoline-6-carboxamide] | 100 nM
COCCNC(=O)c1ccc2c(c1)[C@H](Nc1cccc(C)n1)[C@@H](C)[C@H](C1CC1)N2C(C)=O [Example 256, (2S,3R,4R)-1-acetyl-2-cyclopropyl-N-(2-methoxyethyl)-3-methyl-4-((6-methylpyridin-2-yl)amino)-1,2,3,4-tetrahydroquinoline-6-carboxamide] | 100 nM
CC(=O)N1c2ccc(C(=O)N[C@@H]3CCOC3)cc2[C@H](Nc2cccc(C)n2)[C@@H](C)[C@@H]1C1CC1 [Example 261, (2S,3R,4R)-1-acetyl-2-cyclopropyl-3-methyl-4-((6-methylpyridin-2-yl)amino)-N—((R)-tetrahydrofuran-3-yl)-1,2,3,4-tetrahydroquinoline-6-carboxamide] | 100 nM
CC(=O)N1c2ccc(C(=O)NCCS(C)(=O)=O)cc2[C@H](Nc2cccc(C)n2)[C@@H](C)[C@@H]1C1CC1 [Example 262, (2S,3R,4R)-1-acetyl-2-cyclopropyl-3-methyl-4-((6-methylpyridin-2-yl)amino)-N-(2-(methylsulfonyl)ethyl)-1,2,3,4-tetrahydroquinoline-6-carboxamide] | 100 nM
CC(=O)N1c2ccc(C(N)=O)cc2[C@H](Nc2nccc(C)n2)[C@@H](C)[C@@H]1C1CC1 [Example 291, (2S,3R,4R)-1-acetyl-2-cyclopropyl-3-methyl-4-((4-methylpyrimidin-2-yl)amino)-1,2,3,4-tetrahydroquinoline-6-carboxamide] | 100 nM
CC(=O)N1c2ccc(C#N)cc2[C@H](Nc2cccc(CN(C)C)n2)[C@@H](C)[C@@H]1C1CC1 [Example 298, (2S,3R,4R)-1-acetyl-2-cyclopropyl-4-((6-((dimethylamino)methyl)pyridin-2-yl)amino)-3-methyl-1,2,3,4-tetrahydroquinoline-6-carbonitrile] | 1000 to 100000 nM
CC(=O)N1c2ccc(C#N)cc2[C@H](Nc2ncccc2C(N)=O)[C@@H](C)[C@@H]1C1CC1 [Example 314, 2-(((2S,3R,4R)-1-acetyl-6-cyano-2-cyclopropyl-3-methyl-1,2,3,4-tetrahydroquinolin-4-yl)amino)nicotinamide] | 100 nM
CC(=O)N1c2ccc(C#N)cc2[C@H](Nc2cccc(C(N)=O)n2)[C@@H](C)[C@@H]1C1CC1 [Example 316, 6-(((2S,3R,4R)-1-acetyl-6-cyano-2-cyclopropyl-3-methyl-1,2,3,4-tetrahydroquinolin-4-yl)amino)picolinamide] | 1000 to 100000 nM
CC(=O)N1c2ccc(C#N)cc2[C@H](Nc2cccc(OCCN)n2)[C@@H](C)[C@@H]1C1CC1 [Example 318, (2S,3R,4R)-1-acetyl-4-((6-(2-aminoethoxy)pyridin-2-yl)amino)-2-cyclopropyl-3-methyl-1,2,3,4-tetrahydroquinoline-6-carbonitrile] | 100 nM
CC[C@H]1[C@H](C)[C@@H](Nc2ccc(C#N)cc2)c2cc(C(=O)O)ccc2N1C(C)=O [Example 331, (2S,3R,4R)-1-acetyl-4-((4-cyanophenyl)amino)-2-ethyl-3-methyl-1,2,3,4-tetrahydroquinoline-6-carboxylic acid] | 100 nM
